Results as given in ChEMBL document CHEMBL1124151, “21-[18F]fluoro-16 alpha-ethyl-19-norprogesterone: synthesis and target tissue selective uptake of a progestin receptor based radiotracer for positron emission tomography” (J Med Chem, 1988).

Experiments:
Rattus norvegicus [1] = assay: Distribution in kidney of estrogen-primed immature rats after 1 hour iv administration (13 microCi); conditions: in vivo
Rattus norvegicus [2] = assay: Distribution in fat of iestrogen-primed immature blocked rats after 1 hour iv administration (~/= 17 microg); conditions: in vivo
Rattus norvegicus [3] = assay: Distribution in uterus/muscle of in estrogen-primed immature rats after 1 hour iv administration (120 microCi); conditions: in vivo
Rattus norvegicus [4] = assay: Distribution in kidney of estrogen-primed immature rats after 1 hour iv administration (120 microCi); conditions: in vivo
Rattus norvegicus [5] = assay: Distribution in lungs of estrogen-primed immature blocked rats after 1 hour iv administration (~/= 17 microg); conditions: in vivo
Rattus norvegicus [6] = assay: Distribution in liver of estrogen-primed immature blocked rats after 1 hour iv administration (~/= 17 microg); conditions: in vivo
Rattus norvegicus [7] = assay: Distribution in uterus/muscle of estrogen-primed immature blocked rats after 1 hour iv administration (~/= 17 microg); conditions: in vivo
Rattus norvegicus [8] = assay: Distribution in blood of estrogen-primed immature rats after 3 hour iv administration (120 micro Ci); conditions: in vivo
Rattus norvegicus [9] = assay: Distribution in kidney of estrogen-primed immature blocked rats after 1 hour iv administration (~/= 17 microg); conditions: in vivo
Rattus norvegicus [10] = assay: Distribution in bone of iestrogen-primed immature rats after 1 hour iv administration (120 microCi); conditions: in vivo
Rattus norvegicus [11] = assay: Distribution in brain of estrogen-primed immature blocked rats after 1 hour iv administration (~/= 17 microg); conditions: in vivo
Rattus norvegicus [12] = assay: Distribution in brain of estrogen-primed immature rats after 3 hour iv administration (120 micro Ci); conditions: in vivo
Rattus norvegicus [13] = assay: Distribution in uterus of in estrogen-primed immature rats after 1 hour iv administration (13 microCi); conditions: in vivo
Rattus norvegicus [14] = assay: Distribution in uterus of estrogen-primed immature rats after 1 hour iv administration (120 microCi); conditions: in vivo
Rattus norvegicus [15] = assay: Distribution in lungs of estrogen-primed immature rats after 3 hour iv administration (120 micro Ci); conditions: in vivo
Rattus norvegicus [16] = assay: Distribution in fat of estrogen-primed immature rats after 3 hour iv administration (120 micro Ci); conditions: in vivo
Rattus norvegicus [17] = assay: Distribution in fat of iestrogen-primed immature rats after 1 hour iv administration (13 microCi); conditions: in vivo
Rattus norvegicus [18] = assay: Distribution in uterus/blood of estrogen-primed immature rats after 3 hour iv administration (120 micro Ci); conditions: in vivo
Rattus norvegicus [19] = assay: Distribution in muscle of iestrogen-primed immature blocked rats after 1 hour iv administration (~/= 17 microg); conditions: in vivo
Rattus norvegicus [20] = assay: Distribution in ovaries of estrogen-primed immature rats after 1 hour iv administration (120 microCi); conditions: in vivo
Rattus norvegicus [21] = assay: Distribution in liver of estrogen-primed immature rats after 1 hour iv administration (120 microCi); conditions: in vivo
Rattus norvegicus [22] = assay: Distribution in ovaries of estrogen-primed immature blocked rats after 1 hour iv administration (~/= 17 microg); conditions: in vivo
Rattus norvegicus [23] = assay: Distribution in uterus of in estrogen-primed immature rats after 3 hour iv administration; conditions: in vivo
Rattus norvegicus [24] = assay: Distribution in uterus/blood of in estrogen-primed immature rats after 1 hour iv administration (13 microCi); conditions: other tissue
Rattus norvegicus [25] = assay: Distribution in lungs of estrogen-primed immature rats after 1 hour iv administration (13 microCi); conditions: in vivo
Rattus norvegicus [26] = assay: Distribution in bone of iestrogen-primed immature blocked rats after 1 hour iv administration (~/= 17 microg); conditions: in vivo
Rattus norvegicus [27] = assay: Distribution in bone of estrogen-primed immature rats after 3 hour iv administration (120 micro Ci); conditions: in vivo
Rattus norvegicus [28] = assay: Distribution in liver of estrogen-primed immature rats after 3 hour iv administration (120 micro Ci); conditions: in vivo
Rattus norvegicus [29] = assay: Distribution in kidney of estrogen-primed immature rats after 3 hour iv administration (120 micro Ci); conditions: in vivo
Rattus norvegicus [30] = assay: Distribution in liver of estrogen-primed immature rats after 1 hour iv administration (13 microCi); conditions: in vivo
Rattus norvegicus [31] = assay: Distribution in ovaries of estrogen-primed immature rats after 1 hour iv administration (13 microCi); conditions: in vivo
Rattus norvegicus [32] = assay: Distribution in lungs of estrogen-primed immature rats after 1 hour iv administration (120 microCi); conditions: in vivo
Rattus norvegicus [33] = assay: Distribution in uterus/blood of in estrogen-primed immature rats after 1 hour iv administration (120 microCi); conditions: other tissue
Rattus norvegicus [34] = assay: Distribution in muscle of iestrogen-primed immature rats after 1 hour iv administration (13 microCi); conditions: in vivo
Rattus norvegicus [35] = assay: Distribution in muscle of iestrogen-primed immature rats after 1 hour iv administration (120 microCi); conditions: in vivo
Rattus norvegicus [36] = assay: Distribution in blood of estrogen-primed immature rats after 1 hour iv administration (13 microCi); conditions: in vivo
Rattus norvegicus [37] = assay: Distribution in brain of estrogen-primed immature rats after 1 hour iv administration (13 microCi); conditions: in vivo
Rattus norvegicus [38] = assay: Distribution in bone of iestrogen-primed immature rats after 1 hour iv administration (13 microCi); conditions: in vivo
Rattus norvegicus [39] = assay: Distribution in muscle of iestrogen-primed immature rats after 3 hour iv administration (120 micro Ci); conditions: in vivo
Rattus norvegicus [40] = assay: Distribution in ovaries of estrogen-primed immature rats after 3 hour iv administration (120 micro Ci); conditions: in vivo
Rattus norvegicus [41] = assay: Distribution in blood of estrogen-primed immature blocked rats after 1 hour iv administration (~/= 17 microg); conditions: in vivo
Rattus norvegicus [42] = assay: Distribution in uterus of estrogen-primed immature blocked rats after 1 hour iv administration (~/= 17 microg); conditions: in vivo
Rattus norvegicus [43] = assay: Distribution in brain of estrogen-primed immature rats after 1 hour iv administration (120 microCi); conditions: in vivo
Rattus norvegicus [44] = assay: Distribution in fat of iestrogen-primed immature rats after 1 hour iv administration; conditions: in vivo
Rattus norvegicus [45] = assay: Distribution in blood of estrogen-primed immature rats after 1 hour iv administration (120 microCi); conditions: in vivo
Rattus norvegicus [46] = assay: Distribution in uterus/muscle of estrogen-primed immature rats after 3 hour iv administration (120 micro Ci); conditions: in vivo
Rattus norvegicus [47] = assay: Distribution in uterus/muscle of in estrogen-primed immature rats after 1 hour iv administration (13 microCi); conditions: in vivo
Rattus norvegicus [48] = assay: Distribution in uterus/blood of estrogen-primed immature blocked rats after 1 hour iv administration (~/= 17 microg); conditions: other tissue

## CC[C@@H]1C[C@H]2[C@@H]3CCC4=CC(=O)CC[C@@H]4[C@H]3CC[C@]2(C)[C@H]1C(=O)C[18F]
Rattus norvegicus [1]
  Distribution: 0.86%
Rattus norvegicus [2]
  Distribution: 2.9%
Rattus norvegicus [3]
  Distribution: 15.98%
Rattus norvegicus [4]
  Distribution: 1.05%
Rattus norvegicus [5]
  Distribution: 0.3%
Rattus norvegicus [6]
  Distribution: 2.09%
Rattus norvegicus [7]
  Distribution: 1.59%
Rattus norvegicus [8]
  Distribution: 0.07%
Rattus norvegicus [9]
  Distribution: 0.58%
Rattus norvegicus [10]
  Distribution: 3.18%
Rattus norvegicus [11]
  Distribution: 0.32%
Rattus norvegicus [12]
  Distribution: 0.14%
Rattus norvegicus [13]
  Distribution: 4.03%
Rattus norvegicus [14]
  Distribution: 6.43%
Rattus norvegicus [15]
  Distribution: 0.12%
Rattus norvegicus [16]
  Distribution: 2.78%
Rattus norvegicus [17]
  Distribution: 4.13%
Rattus norvegicus [18]
  uterus/blood ratio: 71.2
Rattus norvegicus [19]
  Distribution: 0.25%
Rattus norvegicus [20]
  Distribution: 2.86%
Rattus norvegicus [21]
  Distribution: 3.34%
Rattus norvegicus [22]
  Distribution: 1%
Rattus norvegicus [23]
  Distribution: 4.63%
Rattus norvegicus [24]
  Distribution: 21.18%
Rattus norvegicus [25]
  Distribution: 0.57%
Rattus norvegicus [26]
  Distribution: 3.09%
Rattus norvegicus [27]
  Distribution: 5.55%
Rattus norvegicus [28]
  Distribution: 1.01%
Rattus norvegicus [29]
  Distribution: 0.33%
Rattus norvegicus [30]
  Distribution: 2.59%
Rattus norvegicus [31]
  Distribution: 2.37%
Rattus norvegicus [32]
  Distribution: 0.47%
Rattus norvegicus [33]
  Distribution: 26.26%
Rattus norvegicus [34]
  Distribution: 0.39%
Rattus norvegicus [35]
  Distribution: 0.42%
Rattus norvegicus [36]
  Distribution: 0.19%
Rattus norvegicus [37]
  Distribution: 0.48%
Rattus norvegicus [38]
  Distribution: 3.06%
Rattus norvegicus [39]
  Distribution: 0.12%
Rattus norvegicus [40]
  Distribution: 1.72%
Rattus norvegicus [41]
  Distribution: 0.15%
Rattus norvegicus [42]
  Distribution: 0.38%
Rattus norvegicus [43]
  Distribution: 0.63%
Rattus norvegicus [44]
  Distribution: 3.56%
Rattus norvegicus [45]
  Distribution: 0.25%
Rattus norvegicus [46]
  Distribution: 41.16%
Rattus norvegicus [47]
  Distribution: 11.06%
Rattus norvegicus [48]
  uterus/blood ratio: 2.53
